Experimental data: patent publication US20140323300A1, “HERBICIDAL COMPOUNDS” (SYNGENTA LIMITED, priority 2011, published 2014)

Columns and labels:
Format in all cases: in vivo
[1] = test system: Amaranthus retoflexus (AMARE); assay: Post-emergence glasshouse herbicide test; details: post-emergence (sprayed after 8 days cultivation), 1000 g/h, evaluated after 13 days, five point scale
Description: (§1) Seeds of a variety of test species are sown in standard soil in pots (Alopecurus myosuroides (ALOMY), Setaria faberi (SETFA), Echinochloa crus-galli (ECHCG), Solanum nigrum (SOLNI), Amaranthus retoflexus (AMARE), Ipomoea hederacea (IPOHE)). After cultivation for one day (pre-emergence) or after 8 days cultivation (post-emergence) under controlled conditions in a glasshouse (at 24/16° C., day/night; 14 hours light; 65% humidity), the plants are sprayed with an aqueous spray solution derived from the formulation of the technical active ingredient in acetone/water (50:50) solution containing 0.5% Tween 20 (polyoxyethelyene sorbitan monolaurate, CAS RN 9005-64-5). Compounds are applied at 1000 g/h. The test plants are then grown in a glasshouse under controlled conditions in a glasshouse (at 24/16° C., day/night; 14 hours light; 65% humidity) and watered twice daily. After 13 days for pre and post-emergence, the test is evaluated for the percentage damage caused to the plant. The biological activities are shown in the following table on a five point scale (5=80-100%; 4=60-79%; 3=40-59%; 2=20-39%; 1=0-19%).

Solanum nigrum (SOLNI) [2] = assay: Post-emergence glasshouse herbicide test; details: post-emergence (sprayed after 8 days cultivation), 1000 g/h, evaluated after 13 days, five point scale
Description: as §1

[3] = test system: Echinochloa crus-galli (ECHCG); assay: Post-emergence glasshouse herbicide test; details: post-emergence (sprayed after 8 days cultivation), 1000 g/h, evaluated after 13 days, five point scale
Description: as §1

[4] = test system: Alopecurus myosuroides (ALOMY); assay: Post-emergence glasshouse herbicide test; details: post-emergence (sprayed after 8 days cultivation), 1000 g/h, evaluated after 13 days, five point scale
Description: as §1

[5] = test system: Ipomoea hederacea (IPOHE); assay: Post-emergence glasshouse herbicide test; details: post-emergence (sprayed after 8 days cultivation), 1000 g/h, evaluated after 13 days, five point scale
Description: as §1

Setaria faberi (SETFA) [6] = assay: Post-emergence glasshouse herbicide test; details: post-emergence (sprayed after 8 days cultivation), 1000 g/h, evaluated after 13 days, five point scale
Description: as §1

[7] = test system: Amaranthus retoflexus (AMARE); assay: Pre-emergence glasshouse herbicide test; details: pre-emergence (sprayed after one day cultivation), 1000 g/h, evaluated after 13 days, five point scale
Description: as §1

Solanum nigrum (SOLNI) [8] = assay: Pre-emergence glasshouse herbicide test; details: pre-emergence (sprayed after one day cultivation), 1000 g/h, evaluated after 13 days, five point scale
Description: as §1

[9] = test system: Echinochloa crus-galli (ECHCG); assay: Pre-emergence glasshouse herbicide test; details: pre-emergence (sprayed after one day cultivation), 1000 g/h, evaluated after 13 days, five point scale
Description: as §1

[10] = test system: Alopecurus myosuroides (ALOMY); assay: Pre-emergence glasshouse herbicide test; details: pre-emergence (sprayed after one day cultivation), 1000 g/h, evaluated after 13 days, five point scale
Description: as §1

[11] = test system: Ipomoea hederacea (IPOHE); assay: Pre-emergence glasshouse herbicide test; details: pre-emergence (sprayed after one day cultivation), 1000 g/h, evaluated after 13 days, five point scale
Description: as §1

Setaria faberi (SETFA) [12] = assay: Pre-emergence glasshouse herbicide test; details: pre-emergence (sprayed after one day cultivation), 1000 g/h, evaluated after 13 days, five point scale
Description: as §1

CS(=O)(=O)c1cc(C(F)(F)F)ccc1-n1ncc(Cl)c(O)c1=O [Compound 1.003]
5 (5=80-100%): percentage damage caused to the plant, POST Application AMARE [1] | percentage damage caused to the plant, POST Application SOLNI (Solanum nigrum (SOLNI) [2]) | percentage damage caused to the plant, POST Application ECHCG [3] | percentage damage caused to the plant, POST Application ALOMY [4] | percentage damage caused to the plant, POST Application IPOHE [5] | percentage damage caused to the plant, POST Application SETFA (Setaria faberi (SETFA) [6]) | percentage damage caused to the plant, PRE Application AMARE [7] | percentage damage caused to the plant, PRE Application SOLNI (Solanum nigrum (SOLNI) [8]) | percentage damage caused to the plant, PRE Application ECHCG [9] | percentage damage caused to the plant, PRE Application ALOMY [10] | percentage damage caused to the plant, PRE Application IPOHE [11] | percentage damage caused to the plant, PRE Application SETFA (Setaria faberi (SETFA) [12])

O=c1c(O)c(Cl)cnn1-c1ccc(C(F)(F)F)cc1Cl [Compound 1.002, 5-chloro-2-[2-chloro-4-(trifluoromethyl)phenyl]-4-hydroxy-pyridazin-3-one]
4 (4=60-79%): percentage damage caused to the plant, PRE Application IPOHE [11] | percentage damage caused to the plant, PRE Application SETFA (Setaria faberi (SETFA) [12])
2 (2=20-39%): percentage damage caused to the plant, PRE Application ALOMY [10]
5 (5=80-100%): percentage damage caused to the plant, POST Application AMARE [1] | percentage damage caused to the plant, POST Application SOLNI (Solanum nigrum (SOLNI) [2]) | percentage damage caused to the plant, POST Application ECHCG [3] | percentage damage caused to the plant, POST Application IPOHE [5] | percentage damage caused to the plant, POST Application SETFA (Setaria faberi (SETFA) [6]) | percentage damage caused to the plant, PRE Application AMARE [7] | percentage damage caused to the plant, PRE Application SOLNI (Solanum nigrum (SOLNI) [8]) | percentage damage caused to the plant, PRE Application ECHCG [9]
1 (1=0-19%): percentage damage caused to the plant, POST Application ALOMY [4]

CS(=O)(=O)c1cc(C(F)(F)F)ccc1-n1ncc(C2CC2)c(O)c1=O [Compound 1.031]
5 (5=80-100%): percentage damage caused to the plant, POST Application AMARE [1] | percentage damage caused to the plant, POST Application SOLNI (Solanum nigrum (SOLNI) [2]) | percentage damage caused to the plant, POST Application ECHCG [3] | percentage damage caused to the plant, POST Application ALOMY [4] | percentage damage caused to the plant, POST Application IPOHE [5] | percentage damage caused to the plant, POST Application SETFA (Setaria faberi (SETFA) [6]) | percentage damage caused to the plant, PRE Application AMARE [7] | percentage damage caused to the plant, PRE Application SOLNI (Solanum nigrum (SOLNI) [8]) | percentage damage caused to the plant, PRE Application ECHCG [9] | percentage damage caused to the plant, PRE Application ALOMY [10] | percentage damage caused to the plant, PRE Application IPOHE [11] | percentage damage caused to the plant, PRE Application SETFA (Setaria faberi (SETFA) [12])

Cc1c(-n2ncc(Cl)c(O)c2=O)ccc(S(C)(=O)=O)c1C1=NOCC1 [Compound 1.004]
5 (5=80-100%): percentage damage caused to the plant, POST Application AMARE [1] | percentage damage caused to the plant, POST Application SOLNI (Solanum nigrum (SOLNI) [2]) | percentage damage caused to the plant, POST Application ECHCG [3] | percentage damage caused to the plant, POST Application ALOMY [4] | percentage damage caused to the plant, POST Application IPOHE [5] | percentage damage caused to the plant, POST Application SETFA (Setaria faberi (SETFA) [6]) | percentage damage caused to the plant, PRE Application AMARE [7] | percentage damage caused to the plant, PRE Application SOLNI (Solanum nigrum (SOLNI) [8]) | percentage damage caused to the plant, PRE Application ECHCG [9] | percentage damage caused to the plant, PRE Application ALOMY [10] | percentage damage caused to the plant, PRE Application IPOHE [11] | percentage damage caused to the plant, PRE Application SETFA (Setaria faberi (SETFA) [12])

Cc1c(-n2ncc(C#N)c(O)c2=O)ccc(S(C)(=O)=O)c1C1=NOCC1 [Compound 1.009]
5 (5=80-100%): percentage damage caused to the plant, POST Application AMARE [1] | percentage damage caused to the plant, POST Application SOLNI (Solanum nigrum (SOLNI) [2]) | percentage damage caused to the plant, POST Application ECHCG [3] | percentage damage caused to the plant, POST Application IPOHE [5] | percentage damage caused to the plant, POST Application SETFA (Setaria faberi (SETFA) [6]) | percentage damage caused to the plant, PRE Application AMARE [7] | percentage damage caused to the plant, PRE Application ECHCG [9]
4 (4=60-79%): percentage damage caused to the plant, PRE Application SOLNI (Solanum nigrum (SOLNI) [8]) | percentage damage caused to the plant, PRE Application IPOHE [11] | percentage damage caused to the plant, PRE Application SETFA (Setaria faberi (SETFA) [12])
1 (1=0-19%): percentage damage caused to the plant, POST Application ALOMY [4] | percentage damage caused to the plant, PRE Application ALOMY [10]

CS(=O)(=O)c1cc(Cl)ccc1-n1ncc(S(C)(=O)=O)c(O)c1=O [Compound 1.047]
2 (2=20-39%): percentage damage caused to the plant, POST Application AMARE [1] | percentage damage caused to the plant, POST Application SOLNI (Solanum nigrum (SOLNI) [2]) | percentage damage caused to the plant, POST Application IPOHE [5] | percentage damage caused to the plant, PRE Application AMARE [7] | percentage damage caused to the plant, PRE Application SOLNI (Solanum nigrum (SOLNI) [8]) | percentage damage caused to the plant, PRE Application IPOHE [11]
1 (1=0-19%): percentage damage caused to the plant, POST Application ECHCG [3] | percentage damage caused to the plant, POST Application ALOMY [4] | percentage damage caused to the plant, POST Application SETFA (Setaria faberi (SETFA) [6]) | percentage damage caused to the plant, PRE Application ECHCG [9] | percentage damage caused to the plant, PRE Application ALOMY [10] | percentage damage caused to the plant, PRE Application SETFA (Setaria faberi (SETFA) [12])

CCc1cnn(-c2ccc(S(C)(=O)=O)c(C3=NOCC3)c2C)c(=O)c1O [Compound 1.005]
2 (2=20-39%): percentage damage caused to the plant, PRE Application SETFA (Setaria faberi (SETFA) [12])
4 (4=60-79%): percentage damage caused to the plant, PRE Application ECHCG [9] | percentage damage caused to the plant, PRE Application ALOMY [10] | percentage damage caused to the plant, PRE Application IPOHE [11]
5 (5=80-100%): percentage damage caused to the plant, POST Application AMARE [1] | percentage damage caused to the plant, POST Application SOLNI (Solanum nigrum (SOLNI) [2]) | percentage damage caused to the plant, POST Application ECHCG [3] | percentage damage caused to the plant, POST Application ALOMY [4] | percentage damage caused to the plant, POST Application IPOHE [5] | percentage damage caused to the plant, POST Application SETFA (Setaria faberi (SETFA) [6]) | percentage damage caused to the plant, PRE Application AMARE [7] | percentage damage caused to the plant, PRE Application SOLNI (Solanum nigrum (SOLNI) [8])

Cc1c(-n2ncc(S(C)(=O)=O)c(O)c2=O)ccc(S(C)(=O)=O)c1C1=NOCC1 [Compound 1.011, 2-[3-(4,5-dihydroisoxazol-3-yl)-2-methyl-4-methylsulfonyl-phenyl]-4-hydroxy-5-methylsulfonyl-pyridazin-3-one]
5 (5=80-100%): percentage damage caused to the plant, POST Application AMARE [1] | percentage damage caused to the plant, POST Application SOLNI (Solanum nigrum (SOLNI) [2]) | percentage damage caused to the plant, POST Application ECHCG [3] | percentage damage caused to the plant, POST Application ALOMY [4] | percentage damage caused to the plant, POST Application IPOHE [5] | percentage damage caused to the plant, POST Application SETFA (Setaria faberi (SETFA) [6]) | percentage damage caused to the plant, PRE Application AMARE [7] | percentage damage caused to the plant, PRE Application SOLNI (Solanum nigrum (SOLNI) [8]) | percentage damage caused to the plant, PRE Application ECHCG [9] | percentage damage caused to the plant, PRE Application ALOMY [10] | percentage damage caused to the plant, PRE Application IPOHE [11] | percentage damage caused to the plant, PRE Application SETFA (Setaria faberi (SETFA) [12])

CCc1cnn(-c2ccc(C(F)(F)F)nc2S(C)(=O)=O)c(=O)c1O [Compound 1.036]
5 (5=80-100%): percentage damage caused to the plant, POST Application AMARE [1] | percentage damage caused to the plant, POST Application SOLNI (Solanum nigrum (SOLNI) [2]) | percentage damage caused to the plant, POST Application ECHCG [3] | percentage damage caused to the plant, POST Application ALOMY [4] | percentage damage caused to the plant, POST Application IPOHE [5] | percentage damage caused to the plant, POST Application SETFA (Setaria faberi (SETFA) [6]) | percentage damage caused to the plant, PRE Application AMARE [7] | percentage damage caused to the plant, PRE Application SOLNI (Solanum nigrum (SOLNI) [8]) | percentage damage caused to the plant, PRE Application ECHCG [9] | percentage damage caused to the plant, PRE Application ALOMY [10] | percentage damage caused to the plant, PRE Application IPOHE [11] | percentage damage caused to the plant, PRE Application SETFA (Setaria faberi (SETFA) [12])

Cc1c(-n2ncc(Br)c(O)c2=O)ccc(S(C)(=O)=O)c1C1=NOCC1 [Compound 1.013]
5 (5=80-100%): percentage damage caused to the plant, POST Application AMARE [1] | percentage damage caused to the plant, POST Application SOLNI (Solanum nigrum (SOLNI) [2]) | percentage damage caused to the plant, POST Application ECHCG [3] | percentage damage caused to the plant, POST Application ALOMY [4] | percentage damage caused to the plant, POST Application IPOHE [5] | percentage damage caused to the plant, POST Application SETFA (Setaria faberi (SETFA) [6]) | percentage damage caused to the plant, PRE Application AMARE [7] | percentage damage caused to the plant, PRE Application SOLNI (Solanum nigrum (SOLNI) [8]) | percentage damage caused to the plant, PRE Application ECHCG [9] | percentage damage caused to the plant, PRE Application SETFA (Setaria faberi (SETFA) [12])
4 (4=60-79%): percentage damage caused to the plant, PRE Application ALOMY [10] | percentage damage caused to the plant, PRE Application IPOHE [11]
